Measured values published in patent publication US8415384B2, “Reducing myocardial reperfusion injury by the combination therapy of protein kinase A activation and B1-adrenergic receptor blockade” (The Board of Regents of the University of Texas System, priority 2008, dated 2013).
Like-named read-outs stand apart in the source and are kept apart here. Where no end group is shown, it is not given here.

Columns and labels:
[1] = cited from earlier work
[2] = system: acute myocardial infarction; conditions: canine model, administration 30-min after the onset of acute myocardial infarction; cited from earlier work
[3] = system: isolated rat ventricular myocytes; test: simulated ischemia-reperfusion of isolated rat ventricular myocytes (2-hr hypoxia, 1-hr re-oxygenation), myocyte death; assay type: cell-based
Protocol: In vitro myocyte ischemia/reperfusion study consists of 2-hour hypoxia followed by 1-hour re-oxygenation. Hypoxia is created by layering mineral oil over the cells. Re-oxygenation is made by removal of the oil. Myocyte death is quantified at the end of 1-hour reperfusion.
(§1) Inventors used rat MI model (30-min ischemia and 4 h reperfusion). […] The effect of combination therapy on myocyte protection was further assessed in a simulated ischemia-reperfusion model of isolated rat ventricular myocytes (2-hr ischemia and 1-hr reperfusion). […] The mechanisms underlying combination therapy were determined by assessing myocardial PKA and PKC activity in normal rats.
To verify that infarct-size reducing or limiting effect is a direct product of PKA activation on myocyte survival but not a secondary effect due to salutatory coronary/systemic hemodynamic alternations, the inventors tested the effect of PKA activation by milrinone on isolated rat ventricular myocytes in primary culture. In vitro myocyte ischemia-reperfusion study consists of 2-hour hypoxia followed by 1-hour re-oxygenation. Hypoxia is created by layering mineral oil over the cells. Re-oxygenation is made by removal of the oil. Myocyte death is quantified at the end of 1-hour reperfusion.

[4] = system: acute myocardial infarction; conditions: rat model, administration before the onset of acute myocardial infarction; cited from earlier work
[5] = system: rat myocardial ischemia-reperfusion model; test: rat myocardial ischemia-reperfusion model (30-min coronary occlusion, 4-hr reperfusion), infarct size; assay type: in vivo; conditions: for effect on infarct size (in words): infusion at late ischemia-early reperfusion; for increase of infarct size (IS): pre-ischemic infusion (10-min), ICI-118551 100 μg/kg/min, CGRP8-37 3 ng/kg/min, n=8/group
Text: N=6 rats/group. […] Yellow zone within the red is the infarcted area. Red zone is the area-at-risk supplied by the occluded left anterior descending coronary artery. Blue zone is non-risk zone supplied by no-occluded right and circumflex coronary arteries. Infarct size is normalized as the ration of yellow-area/red-area. Acute infarction-reperfusion model consists of 30-minute occlusion of the left anterior descending coronary artery followed by four-hour reperfusion. Infarct-size was quantified at the end of four-hour reperfusion. N=6 rats/group. Inventors used rat MI model (30-min ischemia and 4 h reperfusion). […] The effect of combination therapy on myocyte protection was further assessed in a simulated ischemia-reperfusion model of isolated rat ventricular myocytes (2-hr ischemia and 1-hr reperfusion). […] The mechanisms underlying combination therapy were determined by assessing myocardial PKA and PKC activity in normal rats. […] Experimental Myocardial Ischemia-Reperfusion Model. The rat myocardial ischemia-reperfusion model will be used (Birnbaum et al., 2005; Huang et al., 2007a). This model consists of 30 min coronary artery occlusion followed by 4-hr reperfusion. […] To determine the effect of β1-adrenergic receptor antagonist and the synergistic action of both PKA activator and β1-adrenergic receptor antagonist, esmolol ([…]) will be intravenously infused to rats with or without milrinone. Arterial blood pressure and heart rate will be monitored continuously throughout the experiments. Method for in vivo myocardial infarct study: Following anesthesia and ventilation support, the chest is opened and the left coronary artery encircled with a suture and ligated for 30 min. The snare is then released and myocardium reperfused for 4 hr. The left coronary artery is then reoccluded and Evan's blue dye injected into the right ventricle. The LV is sliced into 6-7 sections. […] The areas of ischemia and necrosis in each slice are determined by planimetry, converted into percentages of the whole for each slice, and multiplied by the weight of the slice.

PKA = test: myocardial PKA activity after IV infusion in normal rats; assay type: in vivo, rat; conditions: 10-min tail vein infusion, peaked at 5-min post-infusion, ventricular tissue
Protocol: as §1

[6] = milrinone 5 μg/kg/min, esmolol 10 μg/kg/min

## COc1cccc2c1C(=O)c1c(O)c3c(c(O)c1C2=O)C[C@@](O)(C(=O)CO)C[C@@H]3O[C@H]1C[C@H](N)[C@H](O)[C@H](C)O1 [doxorubicin]
[1]; dose of 501-550 mg/m^2 body surface area, patients
  incidence of doxorubicin-induced cardiomyopathy: > 5%
[1]; dose over 550 mg/m^2, patients
  incidence of doxorubicin-induced cardiomyopathy: 30%

## Cc1[nH]c(=O)c(C#N)cc1-c1ccncc1 [milrinone]
[2]
  effect on infarct size, given after onset of infarction: no infarct-size reduction
[3]; cells pretreated with PKA inhibitor Rp-CAMP 100 μmol/L
  milrinone-induced myocyte protection in presence of PKA inhibitor: abolished
[3]; milrinone 4.7 μmol/L, thirty minutes after the onset of ischemia
  reduction of myocyte death compared to saline control: 11%
[4]
  effect on infarct size, given before onset of infarction (preconditioning): infarct-size reduction
[5]; 10-minute infusion from last 5 minutes of 30-minute ischemia to first 5 minutes of four-hour reperfusion, milrinone 5 μg/kg/min, esmolol 10 μg/kg/min, N=6 rats/group
  infarct-size reduction compared with saline control: 53±5%
[5]; [6]
  effect on infarct size (in words): robust infarct-size reduction

## Cc1ccc(OCC(O)C(C)NC(C)C)c2c1CCC2 (centres unmarked) [ICI-118551]
[5]
  increase of infarct size (IS): 44%

## CC(C)(C)NCC(O)c1cc(O)cc(O)c1 (centres unmarked) [terbutaline]
PKA
  increase of PKA activity: 30%
[3]; CGRP or terbutaline alone
  myocyte survival benefit of single agent (in words): no myocyte survival benefit
[5]; CGRP or terbutaline alone, late ischemia-early reperfusion
  effect on infarct size (IS) of single agent (in words): did not reduce IS

## CGRP8-37: CGRP-receptor blocker (VTHRLAGLLSRSGGVVKNNFVPTNVGSKAF; ends and bridges not checked; UniProt P06881 90-119, looked up, fragment)
[5]
  increase of infarct size (IS): 36%

## COC(=O)CCc1ccc(OCC(O)CNC(C)C)cc1 (centres unmarked) [esmolol]
[5]; [6]
  effect on infarct size (in words): did not change infarct size
